The text below walks through data of PubChem BioAssay (NCI).

Assay in all cases: growth of human tumour cells (NCI), 48 h
Test [1] deals with NCI-H23 lung.
Test [2] deals with SK-MEL-5 melanoma.
Test [3] concerns COLO 205 colon.
For test [4], the system named is PC-3 prostate.
Test [5] deals with SK-MEL-28 melanoma.
The subject of test [6] is NCI-H522 lung.
In test [7] the test system is HT29 colon.
Test [8] relates to CAKI-1 renal.
Test [9] concerns SF-268 CNS.
The subject of test [10] is K-562 leukemia.
The subject of test [11] is ACHN renal.
The test system of test [12] is BT-549 breast.
Test [13] deals with MDA-MB-435.
In test [14] the test system is SW-620 colon.
In test [15] the test system is UACC-62 melanoma.
The test system of test [16] is HOP-92 NSCLC.
Test [17] relates to TK-10 renal.
For test [18], the system named is MDA-MB-231 breast.

Each structure is given as a SMILES string.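 Values below derive from 48-hour exposures of cells grown in 96-well plates, with endpoints linearly interpolated between the two concentrations bracketing the appropriate inhibition level. At the GI50, growth is halved. TGI: total growth inhibition.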 A value given as a limit tells only on which side of the number the result lay.

In the case of `O=C(O)c1nc2ccccc2nc1Nc1ccc(F)cc1`, the TGI in test [1] is over 100 µM; in test [2], 54.2 µM; in test [3], 76.2 µM; in test [4] it was 90.7 µM; in [5] it was over 100 µM; in test [6], 82.4 µM. Moreover, the TGI in test [7] is over 100 µM; in test [8], 63.4 µM; in test [9], 99.2 µM; in test [10], 94.1 µM; in test [11] it was over 100 µM; in test [12], over 100 µM. Moreover, the TGI in test [13] is over 100 µM; in test [14], over 100 µM; in [15], 77.6 µM; in test [16] it was 85.9 µM; in test [17], over 100 µM.

`Cc1cc(N(CCCCl)CCCCl)ccc1C=Nc1cccc(Cl)c1`: the TGI is 27.7 µM in test [1]; 27.4 µM in test [2]; 23.6 µM in [3]; 25.9 µM in test [4]; 41.5 µM in test [5]; 43.7 µM in [6]. Moreover, the TGI in test [7] was 27.7 µM; in [9], 48.4 µM; in [10], 22.7 µM; in test [11], 25.8 µM; in test [13], 36.2 µM; in test [18], 29.3 µM. Moreover, the TGI in [14] was found to be 25.4 µM; in test [15], 7.28 µM; in test [17], 27.5 µM.

Turning to `Cc1nc(-c2cc3c(ccc4ccccc43)oc2=O)cc2c1c(=O)oc1ccc3ccccc3c12`, the TGI in test [1], in test [2], in [3], in test [4], in test [5] and in test [6] was over 100 µM each time. Moreover, the TGI in test [7], in [8], in test [9], in test [10], in test [11] and in [12] was over 100 µM throughout. The TGI in test [13], in test [18], in [14], in test [15], in test [16] and in test [17] was over 100 µM in each case.

As for `C[n+]1ccc(-c2cc[n+](C)cc2)cc1`, the TGI in [1] is over 29.3 µM; in test [2], over 35.6 µM; in test [3], over 38.3 µM; in [5], over 100 µM; in [6], over 34.2 µM; in test [7] it was over 81.9 µM. The TGI in test [8] is over 100 µM; in test [9], over 100 µM; in [10], over 100 µM; in test [11] it was over 100 µM; in test [14], over 100 µM; in test [16] it was over 63.6 µM. For the same compound, the TGI in test [17] was over 100 µM.

On to `Cc1cc(=O)oc2c1cc(OCC(=O)OCCN1CCCCC1)c1occ(C)c12`, for which the TGI in [1], in [2], in test [5], in test [7], in [8] and in test [10] was over 100 µM in each case. Besides, the TGI in test [11], in test [14], in test [15], in test [16] and in [17] was over 100 µM each time.

In the case of `CCOC(=O)CCC(C(=O)OCC)n1nnc2ccc(Nc3c(C)[n+]([O-])c4cc(Cl)ccc4[n+]3[O-])cc21` (stereo not drawn), the TGI in [1] is 69.4 µM; in test [3], 35.7 µM; in test [4] it was over 100 µM; in [6], 47 µM; in [7] it was 68.9 µM; in test [8], over 100 µM. In addition, the TGI in test [9] was 55.1 µM; in test [10] it was 57.7 µM; in test [11], over 100 µM; in test [12], 78.1 µM; in test [13] it was 40.4 µM; in test [15], 35.1 µM. For the same compound, the TGI is 38.7 µM in [16] and over 100 µM in test [17].

Regarding `COc1ccc(OC)c(C#Cc2ccc(OC)c(C(=O)NCCc3ccc(F)cc3)c2)c1`, the TGI in test [1], in test [2], in test [3], in [4], in test [6] and in [7] was over 100 µM each time. Moreover, the TGI in test [8] is over 100 µM; in test [9], over 100 µM; in test [10] it was over 100 µM; in test [11], over 100 µM; in test [12], over 100 µM; in test [13] it was 4.62 µM. Besides, the TGI in test [14], in test [15] and in test [17] was over 100 µM throughout. For the same compound, the GI50 in test [15] was 5.96 µM.

For `Cc1nc2ccccc2c(=O)n1NC(=S)Nc1cccc(Cl)c1`, the TGI in test [1], in [2], in [3], in test [5], in test [6] and in test [7] was over 100 µM throughout. Further, the TGI in test [8], in test [9], in test [10], in [11], in [14] and in [15] was over 100 µM throughout. Further, the TGI in [16] and in test [17] was over 100 µM each time.
